Each compound was assayed against T1, mutant G12C K-RAS (Homo sapiens, UniProt P01116, G12C) (assay: covalent adduct formation (CAF) with mutant G12C K-RAS). Conditions: Table 2, Pyrimidone Core-Morpholine Substituted; after 60 minutes at 10 micromolar.
T1 construct: made in house; host or cells: E. coli BL21
Type: binding
Parameters: CAF: unit not given here
Method: Embodiments disclosed herein are further illustrated by the following examples in Tables 1-4 and the Examples hereinbelow. The Tables indicate the compound number, structure, the observed mass spectral molecular weight peak, and covalent adduct formation (CAF) with a mutant G12C K-RAS after 60 minutes at a concentration of 10 micromolar.

Compound	% CAF (60 min) [%]
C=CC(=O)N1C[C@H](C)N(c2nc(=O)n3c4c(c(-c5ccc(F)cc5F)c(Cl)cc24)OCC3CN(C)C)C[C@H]1C (stereo partly drawn) [Example 35, 7-((2S,5R)-4-acryloyl-2,5-dimethylpiperazin-1-yl)-9-chloro-10-(2,4-difluorophenyl)-3-((dimethylamino)methyl)-2H-[1,4]oxazino[2,3,4-ij]quinazolin-5(3H)-one]	84.6

Same assay, conditions: Table 3, Pyridone Core-Morpholine Unsubstituted; after 60 minutes at 10 micromolar

Compound	CAF
C=CC(=O)N1CCN(c2c(C#N)c(=O)n3c4c(c(-c5c(O)cccc5F)c(Cl)cc24)OCC3)[C@@H](C)C1 [Example 38, 7-((S)-4-acryloyl-2-methylpiperazin-1-yl)-9-chloro-10-(2-fluoro-6-hydroxyphenyl)-5-oxo-3,5-dihydro-2H-[1,4]oxazino[2,3,4-ij]quinoline-6-carbonitrile]	49.1
C=CC(=O)N1CCN(c2c(C#N)c(=O)n3c4c(c(-c5c(O)cccc5F)c(Cl)cc24)OCC3)[C@@H](C)C1 [Example 39, (S)-7-((S)-4-acryloyl-2-methylpiperazin-1-yl)-9-chloro-10-(2-fluoro-6-hydroxyphenyl)-5-oxo-3,5-dihydro-2H-[1,4]oxazino[2,3,4-ij]quinoline-6-carbonitrile]	0
C=CC(=O)N1CCN(c2c(C#N)c(=O)n3c4c(c(-c5c(O)cccc5F)c(Cl)cc24)OCC3)[C@@H](C)C1 [Example 40, (R)-7-((S)-4-acryloyl-2-methylpiperazin-1-yl)-9-chloro-10-(2-fluoro-6-hydroxyphenyl)-5-oxo-3,5-dihydro-2H-[1,4]oxazino[2,3,4-ij]quinoline-6-carbonitrile]	75.5
C=CC(=O)N1C[C@H](C)N(c2c(C#N)c(=O)n3c4c(c(-c5c(O)cccc5F)c(Cl)cc24)OCC3)C[C@H]1C [Example 41, 7-((2S,5R)-4-acryloyl-2,5-dimethylpiperazin-1-yl)-9-chloro-10-(2-fluoro-6-hydroxyphenyl)-5-oxo-3,5-dihydro-2H-[1,4]oxazino[2,3,4-ij]quinoline-6-carbonitrile]	22.3
C=CC(=O)N1C[C@H](C)N(c2c(C#N)c(=O)n3c4c(c(-c5c(O)cccc5F)c(Cl)cc24)OCC3)C[C@H]1C [Example 42, (S)-7-((2S,5R)-4-acryloyl-2,5-dimethylpiperazin-1-yl)-9-chloro-10-(2-fluoro-6-hydroxyphenyl)-5-oxo-3,5-dihydro-2H-[1,4]oxazino[2,3,4-ij]quinoline-6-carbonitrile]	0
C=CC(=O)N1C[C@H](C)N(c2c(C#N)c(=O)n3c4c(c(-c5c(O)cccc5F)c(Cl)cc24)OCC3)C[C@H]1C [Example 43, (R)-7-((2S,5R)-4-acryloyl-2,5-dimethylpiperazin-1-yl)-9-chloro-10-(2-fluoro-6-hydroxyphenyl)-5-oxo-3,5-dihydro-2H-[1,4]oxazino[2,3,4-ij]quinoline-6-carbonitrile]	0
C=CC(=O)N1C[C@H](C)N(c2cc(=O)n3c4c(c(-c5ccc(F)cc5F)c(Cl)cc24)OCC3)C[C@H]1C [Example 44, 7-((2S,5R)-4-acryloyl-2,5-dimethylpiperazin-1-yl)-9-chloro-10-(2,4-difluorophenyl)-2H-[1,4]oxazino[2,3,4-ij]quinolin-5(3H)-one]	4.2
C=CC(=O)N1CCN(c2cc(=O)n3c4c(c(-c5c(O)cccc5F)ccc24)CCC3)CC1 [Example 45, 1-(4-acryloylpiperazin-1-yl)-8-(2-fluoro-6-hydroxyphenyl)-6,7-dihydropyrido[3,2,1-ij]quinolin-3(5H)-one]	1
C=CC(=O)N1CCN(c2cc(=O)n3c4c(c(-c5c(C)ccc6[nH]ncc56)ccc24)CCC3)CC1 [Example 46, 1-(4-acryloylpiperazin-1-yl)-8-(5-methyl-1H-indazol-4-yl)-6,7-dihydropyrido[3,2,1-ij]quinolin-3(5H)-one]	12
C=CC(=O)N1CCN(c2cc(=O)n3c4c(c(-c5ccc(F)cc5F)ccc24)CCC3)CC1 [Example 47, 1-(4-acryloylpiperazin-1-yl)-8-(2,4-difluorophenyl)-6,7-dihydropyrido[3,2,1-ij]quinolin-3(5H)-one]	2
C=CC(=O)N1CCN(c2cc(=O)n3c4c(c(-c5c(C)ccc6[nH]nc(C)c56)ccc24)CCC3)CC1 [Example 48, 1-(4-acryloylpiperazin-1-yl)-8-(3,5-dimethyl-1H-indazol-4-yl)-6,7-dihydropyrido[3,2,1-ij]quinolin-3(5H)-one]	1

Same assay, conditions: Table 4, Pyridone Core-Morpholine Substituted; after 60 minutes at 10 micromolar

Compound	% CAF (60 min) [%]
C=CC(=O)N1C[C@H](C)N(c2c(C#N)c(=O)n3c4c(c(-c5c(O)cccc5F)c(Cl)cc24)OC[C@@H]3CN(C)C)C[C@H]1C [Example 49, (3S)-7-((2S,5R)-4-acryloyl-2,5-dimethylpiperazin-1-yl)-9-chloro-3-((dimethylamino)methyl)-10-(2-fluoro-6-hydroxyphenyl)-5-oxo-3,5-dihydro-2H-[1,4]oxazino[2,3,4-ij]quinoline-6-carbonitrile]	0

Same assay, conditions: Table 5; 10 uM, 1 h

Compound	% CAF @ 10 uM, 1 h [%]
C=CC(=O)N1CCN(c2nc(=O)n3c4c(c(-c5ccc(F)cc5F)c(Cl)cc24)SC[C@H]3CN2CCN(CC(F)F)CC2)[C@@H](C)C1 [Example 70, (3R)-7-((S)-4-acryloyl-2-methylpiperazin-1-yl)-9-chloro-3-((4-(2,2-difluoroethyl)piperazin-1-yl)methyl)-10-(2,4-difluorophenyl)-2,3-dihydro-5H-[1,4]thiazino[2,3,4-ij]quinazolin-5-one]	94
C=CC(=O)N1CCN(c2nc(=O)n3c4c(c(-c5ccc(F)cc5F)c(C(F)(F)F)cc24)SCC3)C2CS(=O)(=O)CC21 (stereo not shown) [Example 100, 7-(4-acryloyl-6,6-dioxidohexahydrothieno[3,4-b]pyrazin-1(2H)-yl)-10-(2,4-difluorophenyl)-9-(trifluoromethyl)-2,3-dihydro-5H-[1,4]thiazino[2,3,4-ij]quinazolin-5-one]	94
C=CC(=O)N1CCN(c2nc(=O)n3c4c(c(-c5ccc(F)cc5F)c(Cl)cc24)SCC3)[C@H](CC#N)C1 [Example 117, 2-((2R)-4-acryloyl-1-(9-chloro-10-(2,4-difluorophenyl)-5-oxo-2,3-dihydro-5H-[1,4]thiazino[2,3,4-ij]quinazolin-7-yl)piperazin-2-yl)acetonitrile]	75.6

Same assay, conditions: Table 6; 10 μM, 1 h

Compound	% CAF @ 10 μM,1 h [%]
C=CC(=O)N1C[C@H](C)N(c2nc(=O)n3c4c(c(-c5c(C)ccc6cnn(C)c56)ccc24)OCC3)C[C@H]1C [Example 194, 7-((2S,5R)-4-acryloyl-2,5-dimethylpiperazin-1-yl)-10-(1,6-dimethyl-1H-indazol-7-yl)-2,3-dihydro-5H-[1,4]oxazino[2,3,4-ij]quinazolin-5-one]	2.5
C=CC(=O)N1CCN(c2nc(=O)n3c4c(c(-c5c(O)cccc5F)c(Cl)cc24)OC[C@@H]3CN2CCOCC2)[C@@H](C)C1 [Example 195, (3S,10R)-7-((S)-4-acryloyl-2-methylpiperazin-1-yl)-9-chloro-10-(2-fluoro-6-hydroxyphenyl)-3-(morpholinomethyl)-2,3-dihydro-5H-[1,4]oxazino[2,3,4-ij]quinazolin-5-one]	0
C=CC(=O)N1CCN(c2nc(=O)n3c4c(c(-c5c(O)cccc5F)c(Cl)cc24)OC[C@@H]3CN2CCOCC2)[C@@H](C)C1 [Example 196, (3S,10S)-7-((S)-4-acryloyl-2-methylpiperazin-1-yl)-9-chloro-10-(2-fluoro-6-hydroxyphenyl)-3-(morpholinomethyl)-2,3-dihydro-5H-[1,4]oxazino[2,3,4-ij]quinazolin-5-one]	97.6
C=CC(=O)N1C[C@H](C)N(c2nc(=O)n3c4c(c(-c5ccccc5C(F)(F)F)c(Cl)cc24)OCC3)C[C@H]1C [Example 197, 7-((2S,5R)-4-acryloyl-2,5-dimethylpiperazin-1-yl)-9-chloro-10-(2-(trifluoromethyl)phenyl)-2,3-dihydro-5H-[1,4]oxazino[2,3,4-ij]quinazolin-5-one]	0
C=CC(=O)N1CCN(c2nc(=O)n3c4c(c(-c5c(O)cccc5F)c(Cl)cc24)OC[C@H]3CN2CCOCC2)[C@@H](C)C1 [Example 198, (3R,10S)-7-((S)-4-acryloyl-2-methylpiperazin-1-yl)-9-chloro-10-(2-fluoro-6-hydroxyphenyl)-3-(morpholinomethyl)-2,3-dihydro-5H-[1,4]oxazino[2,3,4-ij]quinazolin-5-one]	100
C=CC(=O)N1CCN(c2nc(=O)n3c4c(c(-c5c(O)cccc5F)c(Cl)cc24)OC[C@H]3CN2CCOCC2)[C@@H](C)C1 [Example 199, (3R,10R)-7-((S)-4-acryloyl-2-methylpiperazin-1-yl)-9-chloro-10-(2-fluoro-6-hydroxyphenyl)-3-(morpholinomethyl)-2,3-dihydro-5H-[1,4]oxazino[2,3,4-ij]quinazolin-5-one]	0
C=CC(=O)N1C[C@H](C)N(c2nc(=O)n3c4c(c(-c5c(F)cccc5C(F)F)ccc24)OCC3)C[C@H]1C [Example 200, 7-((2S,5R)-4-acryloyl-2,5-dimethylpiperazin-l-yl)-10-(2-(difluoromethyl)-6-fluorophenyl)-2,3-dihydro-5H-1,4|oxazino[2,3,4-ij]quinazolin-5-one]	0
C=CC(=O)N1C[C@H](C)N(c2nc(=O)n3c4c(c(-c5c(F)ccc6[nH]cnc56)ccc24)OCC3)C[C@H]1C [Example 201, 7-((2S,5R)-4-acryloyl-2,5-dimethylpiperazin-1-yl)-10-(5-fluoro-1H-benzo[d]imidazol-4-yl)-2,3-dihydro-5H-[1,4]oxazino[2,3,4-ij]quinazolin-5-one]	0
C=CC(=O)N1C[C@H](C)N(c2nc(=O)n3c4c(c(-c5ccc(F)cc5F)c(Cl)cc24)OC[C@@H]3CN2CCOCC2)C[C@H]1C [Example 203, (3S)-7-((2S,5R)-4-acryloyl-2,5-dimethylpiperazin-1-yl)-9-chloro-10-(2,4-difluorophenyl)-3-(morpholinomethyl)-2H-[1,4]oxazino[2,3,4-ij]quinazolin-5(3H)-one]	84.3
